Columns and labels:
Plasmodium falciparum [1] = assay: Antiplasmodial activity against erythrocytic stage chloroquine sensitive Plasmodium falciparum 3D7 assessed as parasitic growth inhibition measured after 3 days by HRP2-ELISA assay; assay type: functional, organism-based; settings: 3D7, 72 h
Plasmodium falciparum [2] = assay: Antiplasmodial activity against erythrocytic stage chloroquine resistant Plasmodium falciparum dD2 assessed as parasitic growth inhibition measured after 3 days by HRP2-ELISA assay; assay type: functional, organism-based; settings: dD2, 72 h

Row | SMILES | IC50 (Plasmodium falciparum [1]) [µM] | IC50 (Plasmodium falciparum [2]) [µM]
1 | CC(C)(O)[C@H]1O[C@@]2(O)CC[C@@]3(C)[C@@H](CC[C@H]4Cc5c([nH]c6ccccc56)[C@@]43C)C2=CC1=O | 1.1 | 153
2 | CC(C)C1=C(c2c[nH]c3ccccc23)[C@@H]2[C@H](C)C[C@@H](O)[C@@]3(C)[C@H](C)CC[C@@H](O)[C@@]23CC1 | 52 | 
3 | C[C@H](CO)C1=C(c2c[nH]c3ccccc23)[C@@H]2[C@H](C)C[C@@H](O)[C@@]3(C)[C@H](C)CC[C@@H](O)[C@@]23CC1 | 26 | 
4 | CC1=CC[C@@H](O)[C@@]23CC=C(C(C)C)[C@H](c4c[nH]c5ccccc45)[C@@H]2[C@H](C)CC[C@@]13C | 20 | 
5 | C=CC(C)(C)c1cccc2[nH]c3c(c12)C[C@@H]1CC[C@H]2C4=CC(=O)[C@@H](C(C)(C)O)O[C@H]4CC[C@]2(C)[C@@]31C | 0.84 | 41
6 | CC(C)C1=CC[C@]23[C@@H]([C@H](C)CC[C@@]2(C)[C@H](C)CC[C@H]3O)[C@H]1c1c[nH]c2ccccc12 | 31 | 
7 | C[C@@H]1CC[C@@]2(C)[C@H](C)CC[C@@H](O)[C@]23CC[C@@H](C(C)(C)O)[C@H](c2c[nH]c4ccccc24)[C@H]13 | > 200 | 
8 | Cc1cc2[nH]c3ccccc3c2c2c1CC[C@@]13[C@H](O)CC[C@@H](C)[C@]1(C)[C@H](O)C[C@@H](C)[C@@H]23 | 49 | 
9 | CC(C)C1=C(c2c[nH]c3ccccc23)[C@@H]2[C@H](C)CC[C@@]3(C)[C@H](C)CC[C@@H](O)[C@@]23CC1 | 2.8 | > 200
10 | C=CC(C)(C)c1cccc2[nH]c3c(c12)C[C@@H]1CC(=O)[C@@]2(O)C4=CC(=O)[C@@H](C(C)(C)O)O[C@]4(O)CC[C@]2(C)[C@@]31C | 57 | 
11 | C=CC(C)(C)c1ccc2[nH]c3c(c2c1)C[C@@H]1CC[C@H]2C4=CC(=O)[C@@H](C(C)(C)O)O[C@H]4CC[C@]2(C)[C@@]31C | 1.3 | 96
12 | C=CC(C)(C)c1cccc2[nH]c3c(c12)C[C@@H]1CC[C@@]2(O)C4=CC(=O)[C@@H]5O[C@@]4(CC[C@]2(C)[C@@]31C)OC5(C)C [AFLATREME] | > 200 | 
13 | C[C@@H]1CC[C@H]2[C@@H](C)C(=O)O[C@@H]3O[C@@]4(C)CC[C@@H]1[C@]32OO4 [ARTEMISININ] | 0.013 | 12
14 | CC(C)(O)[C@H]1O[C@H]2CC[C@@]3(C)[C@@H](CC[C@H]4Cc5c([nH]c6ccccc56)[C@@]43C)C2=CC1=O [DEHYDROXYPAXILLINE] | 0.9 | 69
15 | CC(C)=CCC[C@]1(C)[C@@H](O)CC[C@@]2(C)[C@H]1CC[C@H]1Cc3c([nH]c4ccccc34)[C@@]12C [EMINDOLE SB] | 2.9 | 34
16 | CC(C)(O)[C@@H]1CC[C@]2(C)[C@H](CC[C@@]3(C)[C@H]2CC[C@H]2Cc4c([nH]c5ccccc45)[C@@]23C)O1 [PASPALINE] | 2.2 | > 200
